Data from publication PMC8583417, “Evaluation of the Antimicrobial Efficacy of N-Acetyl-L-Cysteine, Rhamnolipids, and Usnic Acid—Novel Approaches to Fight Food-Borne Pathogens” (International Journal of Molecular Sciences, 2021).

What was measured:
[1] = test system: S. Enteritidis ATCC 13076; test: MIC for planktonic cell growth (A625nm); format: cell-based, Salmonella enterica Enteritidis; settings: for MICPC80: ≥80% inhibition, 24 h
Protocol: (§1) Ten concentrations of NAC, RLs, and UA were tested to determine the minimum inhibitory concentration for planktonic growth, and subsequently, the six highest concentrations were applied on preformed biofilms to evaluate the biofilm eradication ability of the compounds. MIC was defined as the lowest substance concentration able to inhibit at least 80% of microbial growth (MICPC80 for planktonic cells, MICBC80 for further growth of biofilm cells), inhibit 80% of metabolic activity (MICBM80 for biofilm metabolic activity, MICMPB80 for metabolic activity of preformed biofilm), prevent biofilm formation by at least 80% (MICBF80 for biofilm formation), or reduce a preformed biofilm by at least 80% (MICBR80 for biofilm reduction). The results of MICs are summarized in Table 1 (planktonic cells) and Table 2 (biofilm-associated cells).
(§2) The determination of MICs was performed according to Chlumsky et al.. […] To evaluate planktonic cells growth (MICPC80) and further growth of biofilm cells (MICBC80), the optical density of the content of the microtiter plates was measured spectrophotometrically at 625 nm before and after 24 h (for biofilm formation) of cultivation or before and after additional 20 h incubation with the tested compound (for preformed biofilm). […] To evaluate the inhibition of biofilm formation (MICBF80) and reduction in preformed biofilms (MICBR80), biomass was quantified using crystal violet staining, and its metabolic activity (MICBM80 and MICMPB80) was estimated by using the MTT (thiazyl tetrazolium bromide, Sigma-Aldrich, USA) reduction assay, both measured spectrophotometrically at 595 nm.
(§3) All inhibitions were calculated using the formula of Chlumsky et al. below (Equation (1)):(1) A625(595)nm inhibition (%)=A625(595)nm (control) – A625(595)nm(natural substance)/A625(595)nm (control)× 100 where A625(595)nm (control) is the absorbance of bacterial suspension/biofilm itself, and A625(595)nm(natural substance) is the absorbance of the bacterial suspension/biofilm with the added natural substance (NAC, RLs, and UA). […]

[2] = test system: E. coli 683/17; test: CLSM analysis, biofilm removal (preformed biofilm); format: cell-based, Escherichia coli; settings: for Thickness (µm) subCBM80: substance at subinhibitory concentration
Protocol: (§4) Biofilm prevention and removal analyses were performed using previously determined minimum inhibitory and subinhibitory concentrations for metabolic activity (MICBM80, subCBM80; MICMPB80, subCMPB80) of NAC, RLs, and UA specific for each tested strain. Selected concentrations were used to evaluate the inhibition of biofilm formation (biofilm prevention) and the reduction in previously formed biofilms (biofilm removal) for the same set of microorganisms, with the exception of S. Infantis, which was excluded from the analysis due to its inability to form biofilm in the selected microtiter plate. Biofilm prevention and removal were observed using CLSM with specific staining to distinguish between live and membrane-compromised cells. Images were analyzed to evaluate (i). the total volume of the biomass, (ii). ratios of live and membrane-compromised cells, and (iii). to calculate biofilm volume reduction for individual organisms after the respective treatment types. The total biofilm volume was normalized by the area of the well and expressed as an average biofilm thickness. Complete data are provided in Supplementary Materials (Tables S1–S8).
(§5) At first, bacterial suspensions were cultivated in microtiter plates to produce overnight biofilms (18 h). […] cells were then washed out, and the remaining biofilms were further cultivated for an additional 20 h with selected compounds. Following biofilm cultivation, biomass was observed using CLSM with live/membrane-compromised cell staining. Biomass images from biofilm removal treatments were similar to results from biofilm prevention, where biomass was highly diversified across the bacterial species and strains. Visually, biomass images were fairly consistent within the quadruplicates for each tested organism. Non-treated biofilms of S. aureus contained consistent biomass spread across the well (S. aureus 816) or grown around the edges (S. aureus 1241). […] PI staining identified membrane-compromised cells spread across S. aureus 816 biomass and incorporated in the edge of biomass and/or in the central part of the well (Figure 4B,C). […] Membrane-compromised cells appeared contained around the edges (S. aureus 1241), disturbed across the well (in both strains of L. monocytogenes), or in separated biomass in the central part of the well (in both strains of E. coli when treated with the subinhibitory concentration of RLs) (Figure 4D,E).
(§6) For both inhibition and reduction of biofilms, overnight cultures from BHI were diluted in TSB + 1% Glc to reach an absorbance of 0.08 to 0.1 at 625 nm. The inoculum (150 µL) was transferred into wells of the 96-well flat-bottomed Ibidiμ-Plate (Ibidi, Gräfelfing, Germany) and mixed with 150 µL of each of the three tested substances in technical quadruplicates, followed by incubation at 37 °C for 24 h. Simultaneously, the prepared bacterial suspensions were inoculated to an additional microtiter plate (200 µL) and allowed to form biofilm overnight (18 h at 37 °C). After the incubation, the content of the well was drained off, and 200 µL of each of the three tested substances was added to the plate, which was then incubated for an additional 20 h. The used concentrations of the substances represented the subinhibitory and minimum inhibitory concentrations for metabolic activity (subCBM80, MICBM80; subCMPB80, MICMPB80). Both setups contained a positive control of the bacterial growth (inoculum mixed with sterile TSB + 1% Glc medium) and a control monitoring microbial contamination (sterile medium). Non-treated wells were used as a positive control for comparison between non-treated and treated biofilm mass.
(§7) Prior to the imaging, the wells were stained with the LIVE/DEAD® BacLight™ Bacterial Viability Kit (Thermo Fisher Scientific, MA, USA) following the manufacturer’s guidelines and Drago et al.. […]

[3] = test system: E. coli 693/17; test: CLSM analysis, biofilm removal (preformed biofilm); format: cell-based, Escherichia coli; settings: for Thickness (µm) subCBM80: substance at subinhibitory concentration
Protocol: as §4, §5, §6, §7

[4] = test system: S. aureus 1241; test: MIC for further growth of biofilm cells, preformed biofilm (A625nm); format: cell-based, Staphylococcus aureus; settings: ≥80% inhibition, 18 h preformed biofilm, 20 h with substance
Protocol: as §1, §2, §3

[5] = test system: L. monocytogenes 164; test: CLSM analysis, biofilm removal (preformed biofilm); format: cell-based, Listeria monocytogenes; settings: for Thickness (µm) MICBM80: substance at its MIC
Protocol: as §4, §5, §6, §7

[6] = test system: L. monocytogenes 149; test: CLSM analysis, biofilm removal (preformed biofilm); format: cell-based, Listeria monocytogenes; settings: 20 h exposure, mean ± SD; for Thickness (µm) MICBM80: substance at its MIC; for Thickness (µm) subCBM80: substance at subinhibitory concentration
Protocol: as §4, §5, §6, §7

[7] = 20 h, subinhibitory concentration
[8] = preformed biofilm, 20 h exposure, mean ± SD
[9] = preformed biofilm, 20 h exposure, substance at its MIC, mean ± SD

Compound | maximal achieved inhibition (MICPC80 not reached) ([1]; within tested concentrations) [%] | MICPC80 [1] | proportion of membrane-compromised cells [2, 7] | Thickness (µm) subCBM80 [2, 8] [µm] | proportion of membrane-compromised cells [3, 7] | Thickness (µm) subCBM80 [3, 8] [µm] | MICBC80 [4] [µg/mL] | Thickness (µm) MICBM80 [5, 8] [µm] | Thickness (µm) MICBM80 [6] [µm] | Thickness (µm) subCBM80 [6] [µm] | Thickness (µm) MICBM80 [2, 9] [µm] | Thickness (µm) MICBM80 [3, 9] [µm] | proportion of membrane-compromised cells ([5]; 20 h, MIC and subinhibitory concentration) | Thickness (µm) subCBM80 ([5]; preformed biofilm, 20 h exposure, substance at subinhibitory concentration, mean ± SD) [µm]
CC(=O)c1c(O)c(C)c(O)c2c1OC1=CC(=O)C(C(C)=O)C(=O)C12C (single isomer, unassigned; (+)) [UA, (+)-usnic acid] | 42 | > 31.3 µg/mL | up to 40% | 285 ± 38.5 | up to 40% | 254 ± 81.8 | 3.91 | 440 ± 60.8 | 317 ± 62.3 | 276 ± 26.8 | – | – | – | –
CC(=O)N[C@@H](CS)C(=O)O [NAC, N-Acetyl-L-cysteine] | – | 12,500 µg/mL | – | 128 ± 31.6 | – | 181 ± 33.7 | 6250 | 345 ± 62 | 338 ± 85.7 | 332 ± 51.2 | 153 ± 33.3 | 222 ± 68.8 | up to 20% | 335 ± 23.1
